Assay results: PubChem BioAssay AID2060511 (Molecular Pharmacology Branch, DTP, NCI, 2025)

Tested on: 422866-222-R5-J1-PDC spheroids with HUVEC/MSC, viability
Assay: Anticancer human tumor 422866-222-R5-J1-PDC patient-derived pancreatic adenocarcinoma cell line growth inhibition [GQUAD]
Conditions: for IC50: curve of first compound; for viability, T/C: stronger effect = lower value
Procedure, shortened: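 Multi-cell-type spheroids of tumor cells with HUVEC and mesenchymal stem cells, treated with drug combinations. Concentrations descend in half-log steps from near clinical Cmax, or from 10 microM where Cmax is unknown; viability read-out.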

[1] = second compound 0.0316 µM, first compound 0.0316 µM
[2] = second compound 0.0316 µM, first compound 0.1 µM
[3] = second compound 0.0316 µM, first compound 0.316 µM
[4] = second compound 0.0316 µM, first compound 1 µM
[5] = second compound 0.0316 µM, first compound 3.16 µM
[6] = second compound 0.0316 µM, first compound 10 µM
[7] = second compound 0.1 µM, first compound 0.0316 µM
[8] = second compound 0.1 µM, first compound 0.1 µM
[9] = second compound 0.1 µM, first compound 0.316 µM
[10] = second compound 0.1 µM, first compound 1 µM
[11] = second compound 0.1 µM, first compound 3.16 µM
[12] = second compound 0.1 µM, first compound 10 µM
[13] = second compound 0.316 µM, first compound 0.0316 µM
[14] = second compound 0.316 µM, first compound 0.1 µM
[15] = second compound 0.316 µM, first compound 0.316 µM
[16] = second compound 0.316 µM, first compound 1 µM
[17] = second compound 0.316 µM, first compound 3.16 µM
[18] = second compound 0.316 µM, first compound 10 µM
[19] = second compound 1 µM, first compound 0.0316 µM
[20] = second compound 1 µM, first compound 0.1 µM
[21] = second compound 1 µM, first compound 0.316 µM
[22] = second compound 1 µM, first compound 1 µM
[23] = second compound 1 µM, first compound 3.16 µM
[24] = second compound 1 µM, first compound 10 µM
[25] = second compound 3.16 µM, first compound 0.0316 µM
[26] = second compound 3.16 µM, first compound 0.1 µM
[27] = second compound 3.16 µM, first compound 0.316 µM
[28] = second compound 3.16 µM, first compound 1 µM
[29] = second compound 3.16 µM, first compound 3.16 µM
[30] = second compound 3.16 µM, first compound 10 µM
[31] = second compound 10 µM, first compound 0.0316 µM
[32] = second compound 10 µM, first compound 0.1 µM
[33] = second compound 10 µM, first compound 0.316 µM
[34] = second compound 10 µM, first compound 1 µM
[35] = second compound 10 µM, first compound 3.16 µM
[36] = second compound 10 µM, first compound 10 µM
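Note: spheroids exposed to compounds for seven days before reading.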
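Throughout, for viability, T/C: percent viability relative to DMSO vehicle control taken as 100%.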

## COc1ncnc(C2CC2)c1-c1ncc2cnn(Cc3ccc(-c4nc(C(F)(F)F)cn4C(C)C)cc3)c2n1 + CN(C)c1ccc(Nc2c3ccc(NC(=O)CCN4CCCC4)cc3nc3cc(NC(=O)CCN4CCCC4)ccc23)cc1
Second compound 0.0316 µM
  IC50: > 10 µM
Second compound 0.1 µM
  IC50: > 10 µM
Second compound 0.316 µM
  IC50: > 10 µM
Second compound 1 µM
  IC50: > 10 µM
Second compound 3.16 µM
  IC50: > 10 µM
Second compound 10 µM
  IC50: > 10 µM
[1]
  viability, T/C: 92.7%
[2]
  viability, T/C: 88.3%
[3]
  viability, T/C: 124%
[4]
  viability, T/C: 93%
[5]
  viability, T/C: 90%
[6]
  viability, T/C: 104%
[7]
  viability, T/C: 116%
[8]
  viability, T/C: 104%
[9]
  viability, T/C: 109%
[10]
  viability, T/C: 94.9%
[11]
  viability, T/C: 100%
[12]
  viability, T/C: 100%
[13]
  viability, T/C: 104%
[14]
  viability, T/C: 89.8%
[15]
  viability, T/C: 100%
[16]
  viability, T/C: 94.3%
[17]
  viability, T/C: 106%
[18]
  viability, T/C: 100%
[19]
  viability, T/C: 90.7%
[20]
  viability, T/C: 92.2%
[21]
  viability, T/C: 101%
[22]
  viability, T/C: 90.9%
[23]
  viability, T/C: 97.1%
[24]
  viability, T/C: 84.5%
[25]
  viability, T/C: 85.8%
[26]
  viability, T/C: 102%
[27]
  viability, T/C: 101%
[28]
  viability, T/C: 92.9%
[29]
  viability, T/C: 103%
[30]
  viability, T/C: 69.9%
[31]
  viability, T/C: 98.6%
[32]
  viability, T/C: 109%
[33]
  viability, T/C: 104%
[34]
  viability, T/C: 69.3%
[35]
  viability, T/C: 86.8%
[36]
  viability, T/C: 58%

## COc1ncnc(C2CC2)c1-c1ncc2cnn(Cc3ccc(-c4nc(C(F)(F)F)cn4C(C)C)cc3)c2n1 + Cc1[nH]c2ccc(F)cc2c1-c1nc2c3cccnc3c3ncccc3c2[nH]1
Second compound 0.0316 µM
  IC50: 8.04 µM
Second compound 0.1 µM
  IC50: > 10 µM
Second compound 0.316 µM
  IC50: > 10 µM
Second compound 1 µM
  IC50: > 10 µM
Second compound 3.16 µM
  IC50: > 10 µM
Second compound 10 µM
  IC50: > 10 µM
[1]
  viability, T/C: 91.9%
[2]
  viability, T/C: 96.2%
[3]
  viability, T/C: 111%
[4]
  viability, T/C: 87.1%
[5]
  viability, T/C: 64.6%
[6]
  viability, T/C: 46.4%
[7]
  viability, T/C: 106%
[8]
  viability, T/C: 97.4%
[9]
  viability, T/C: 110%
[10]
  viability, T/C: 99.2%
[11]
  viability, T/C: 63.1%
[12]
  viability, T/C: 49.8%
[13]
  viability, T/C: 93%
[14]
  viability, T/C: 116%
[15]
  viability, T/C: 106%
[16]
  viability, T/C: 90.1%
[17]
  viability, T/C: 66.3%
[18]
  viability, T/C: 55.2%
[19]
  viability, T/C: 86%
[20]
  viability, T/C: 110%
[21]
  viability, T/C: 105%
[22]
  viability, T/C: 104%
[23]
  viability, T/C: 72.7%
[24]
  viability, T/C: 54.2%
[25]
  viability, T/C: 67.6%
[26]
  viability, T/C: 70.7%
[27]
  viability, T/C: 71.7%
[28]
  viability, T/C: 77.5%
[29]
  viability, T/C: 63.6%
[30]
  viability, T/C: 60.8%
[31]
  viability, T/C: 58.2%
[32]
  viability, T/C: 53.3%
[33]
  viability, T/C: 73.5%
[34]
  viability, T/C: 47.7%
[35]
  viability, T/C: 60.6%
[36]
  viability, T/C: 50.2%
